Measurements from PubChem BioAssay AID1195 (EPA DSSTox, 2008).

System: human maximum recommended daily dose, FDA database
Assay: DSSTox (FDAMDD) FDA Maximum (Recommended) Daily Dose Database
Settings: active compounds read low
Procedure, shortened: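 MRDD values come from clinical trials with daily oral dosing, usually for 3–12 months, for the average adult, in mg/day converted to mg/kg-bw/day assuming 60 kg. Antineoplastic mg/m2 doses are divided by 37. Activity score maps log10(1/MRDD mmol) onto 1–100.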

[1] = TherapeuticCategory: anti inflammatory
[2] = TherapeuticCategory: antibacterial
[3] = TherapeuticCategory: antihypertensive

C#C[C@]1(OC(C)=O)CC[C@H]2[C@@H]3CCC4=C[C@@H](OC(C)=O)CC[C@@H]4[C@H]3CC[C@@]21C
maximum recommended daily dose (mmol/kg-bw/day) (TherapeuticCategory: progestogen): 4.34e-05

CC(C)NCC1CCc2cc(CO)c([N+](=O)[O-])cc2N1 (stereo not given)
maximum recommended daily dose (mmol/kg-bw/day) (TherapeuticCategory: anthelmintic): 0.215

CC(O)(P(=O)(O)O)P(=O)(O)O
maximum recommended daily dose (mmol/kg-bw/day) (TherapeuticCategory: calcium regulator): 0.0971

CCCCC1C(=O)NN(c2ccccc2)C1=O (stereo not given)
maximum recommended daily dose (mmol/kg-bw/day) [1]: 0.0215

C1CCN2C[C@@H]3C[C@@H](CN4CCCC[C@@H]34)[C@H]2C1
maximum recommended daily dose (mmol/kg-bw/day) (TherapeuticCategory: oxytocic): 0.0427

CC(C)(O)C(C)(O)c1ccc(Cl)cc1 (stereo not given)
maximum recommended daily dose (mmol/kg-bw/day) (TherapeuticCategory: anxiolytic, anticonvulsant): 0.0932

CCN(CC)S(=O)(=O)c1ccc(C(=O)O)cc1
maximum recommended daily dose (mmol/kg-bw/day) (TherapeuticCategory: uricosuric): 0.194

CC(C)(C)c1ccc(C(O)CCCN2CCC(C(O)(c3ccccc3)c3ccccc3)CC2)cc1 (stereo not given)
maximum recommended daily dose (mmol/kg-bw/day) (TherapeuticCategory: antihistaminic): 0.00424

C[C@](O)(CS(=O)(=O)c1ccc(F)cc1)C(=O)Nc1ccc(C#N)c(C(F)(F)F)c1
maximum recommended daily dose (mmol/kg-bw/day) (TherapeuticCategory: antiandrogen, antineoplastic): 0.00194

NC[C@H]1O[C@H](O[C@H]2[C@H](O)[C@@H](O[C@H]3O[C@H](CO)[C@@H](O)[C@H](N)[C@H]3O)[C@H](N)C[C@@H]2N)[C@H](N)[C@@H](O)[C@@H]1O
maximum recommended daily dose (mmol/kg-bw/day) [2]: 0.031

Cc1ccc(C(=O)c2cc(O)c(O)c([N+](=O)[O-])c2)cc1
maximum recommended daily dose (mmol/kg-bw/day) (TherapeuticCategory: antidepressant, catechol-O-methyltransferase inhibitor): 0.0122

CC(Oc1ccccc1)C(=O)N[C@@H]1C(=O)N2[C@@H]1SC(C)(C)[C@@H]2C(=O)O (stereo not given in full)
maximum recommended daily dose (mmol/kg-bw/day) [2]: 0.137

COc1cc(NS(=O)(=O)c2ccc(N)cc2)nc(OC)n1
maximum recommended daily dose (mmol/kg-bw/day) [2]: 0.107

Nc1ncnc2c1ncn2[C@@H]1O[C@H](COP(=O)(O)O)[C@@H](O)[C@H]1O
maximum recommended daily dose (mmol/kg-bw/day) (TherapeuticCategory: antiarrhythmic): 0.000959

O=C1C(O)N=C(c2ccccc2F)c2cc(Cl)ccc2N1CCO (stereo not given)
maximum recommended daily dose (mmol/kg-bw/day) (TherapeuticCategory: sedative, hypnotic): 0.000955

CCCCC[C@](C)(O)/C=C/[C@@H]1[C@@H](C/C=C\CCCC(=O)O)[C@@H](O)C[C@H]1O
maximum recommended daily dose (mmol/kg-bw/day) (TherapeuticCategory: oxytocic): 0.000543

CN(C(=O)CC(=O)N(C)c1c(I)c(C(=O)NC(CO)C(O)CO)c(I)c(C(=O)NC(CO)C(O)CO)c1I)c1c(I)c(C(=O)NC(CO)C(O)CO)c(I)c(C(=O)NC(CO)C(O)CO)c1I (stereo not given)
maximum recommended daily dose (mmol/kg-bw/day) (TherapeuticCategory: diagnostic aid): 0.0615

CCC(C)(C)C(=O)O[C@H]1C[C@@H](C)C=C2C=C[C@H](C)[C@H](CC[C@@H]3C[C@@H](O)CC(=O)O3)[C@H]21
maximum recommended daily dose (mmol/kg-bw/day) (TherapeuticCategory: antihyperlipoproteinemic): 0.00159

C[C@]12CC[C@@H]3c4ccc(OC(=O)c5ccccc5)cc4CC[C@H]3[C@@H]1CC[C@@H]2O
maximum recommended daily dose (mmol/kg-bw/day) (TherapeuticCategory: estrogen): 0.00133

Clc1cccc(Cl)c1NC1=NCCN1
maximum recommended daily dose (mmol/kg-bw/day) [3]: 0.000174

Cc1c(-c2ccccc2)oc2c(C(=O)OCCN3CCCCC3)cccc2c1=O
maximum recommended daily dose (mmol/kg-bw/day) (TherapeuticCategory: antispasmodic): 0.034

CN(C(=O)C(Cl)Cl)c1ccc(O)cc1
maximum recommended daily dose (mmol/kg-bw/day) (TherapeuticCategory: antiamebic): 0.107

CC(=O)OCC1=C(C(=O)O)N2C(=O)[C@@H](NC(=O)CSc3ccncc3)[C@H]2SC1
maximum recommended daily dose (mmol/kg-bw/day) [2]: 0.236

Cc1cccc(Nc2ccncc2S(=O)(=O)NC(=O)NC(C)C)c1
maximum recommended daily dose (mmol/kg-bw/day) (TherapeuticCategory: diuretic): 0.00956

COc1cccc2c1C(=O)c1c(O)c3c(c(O)c1C2=O)C[C@@](O)(C(=O)CO)C[C@@H]3O[C@H]1C[C@H](N)[C@@H](O)[C@H](C)O1
maximum recommended daily dose (mmol/kg-bw/day) (TherapeuticCategory: antineoplastic): 0.00447

CC(COc1ccccc1)NC(C)C(O)c1ccc(O)cc1 (stereo not given)
maximum recommended daily dose (mmol/kg-bw/day) (TherapeuticCategory: vasodilator): 0.00441

NC(N)=NCCCC(N)C(=O)O (stereo not given)
maximum recommended daily dose (mmol/kg-bw/day) (TherapeuticCategory: ammonia detoxicant, diagnostic aid): 2.87

CCOc1ccccc1OCCN[C@H](C)Cc1ccc(OC)c(S(N)(=O)=O)c1
maximum recommended daily dose (mmol/kg-bw/day) (TherapeuticCategory: alpha 1A androceptor antagonist): 3.26e-05

O=C(O)c1cccnc1
maximum recommended daily dose (mmol/kg-bw/day) (TherapeuticCategory: vitamin): 0.102

NS(=O)(=O)c1cc2c(cc1Cl)NC(CC1CCCC1)NS2(=O)=O (stereo not given)
maximum recommended daily dose (mmol/kg-bw/day) [3]: 6.58e-05

CCN(CC)CCOC(=O)C1(C2CCCCC2)CCCCC1
maximum recommended daily dose (mmol/kg-bw/day) (TherapeuticCategory: anticholinergic): 0.0043

O=C(c1ccc(F)cc1)C1CCN(CCn2c(=O)[nH]c3ccccc3c2=O)CC1
maximum recommended daily dose (mmol/kg-bw/day) [3]: 0.00336

CCOC(=O)C1(c2ccccc2)CCCN(C)CC1 (stereo not given)
maximum recommended daily dose (mmol/kg-bw/day) (TherapeuticCategory: analgesic): 0.0383

O=C(O)CCC(=O)c1ccc(C2CCCCC2)c(Cl)c1
maximum recommended daily dose (mmol/kg-bw/day) [1]: 0.0678

CC(=O)CC(c1ccccc1)c1c(O)c2ccccc2oc1=O (stereo not given)
maximum recommended daily dose (mmol/kg-bw/day) (TherapeuticCategory: anticoagulant): 0.000542
